The text below walks through data of US20250059198A1, “BRM DEGRADING COMPOUNDS AND ASSOCIATED METHODS OF USE” (Arvinas Operations, Inc., priority 2021, published 2025).

Where only a bound is given, the exact number is not on record here.

In this assay the target is T1, BRM (Homo sapiens, UniProt P51531).
T1 construct: Western Blot Screen of BRM Degradation in SW1573 Cells; endogenous in cells; host or cells: SW1573 cells
Nature of the assay: BRM degradation (Dmax and DC50) in SW1573 cells, Western blot screen / In-Cell Western screen. The settings on record: overnight (18-20 hours) treatment; for Dmax: read-out: Dmax (%)** (% degraded). Format: cell-based. A digest of the protocol:
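SW1573 cells were treated with compound for 18–20 h (final 0.1% DMSO). BRM was quantified either by Western blot of RIPA lysates or by fixed-cell In-Cell Western (LI-COR, 800/680 nm), each normalised to alpha-tubulin, giving Dmax and DC50.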
(In western blotting, separated proteins are transferred to a membrane and probed.)

T1 sequence (P51531 whole entry): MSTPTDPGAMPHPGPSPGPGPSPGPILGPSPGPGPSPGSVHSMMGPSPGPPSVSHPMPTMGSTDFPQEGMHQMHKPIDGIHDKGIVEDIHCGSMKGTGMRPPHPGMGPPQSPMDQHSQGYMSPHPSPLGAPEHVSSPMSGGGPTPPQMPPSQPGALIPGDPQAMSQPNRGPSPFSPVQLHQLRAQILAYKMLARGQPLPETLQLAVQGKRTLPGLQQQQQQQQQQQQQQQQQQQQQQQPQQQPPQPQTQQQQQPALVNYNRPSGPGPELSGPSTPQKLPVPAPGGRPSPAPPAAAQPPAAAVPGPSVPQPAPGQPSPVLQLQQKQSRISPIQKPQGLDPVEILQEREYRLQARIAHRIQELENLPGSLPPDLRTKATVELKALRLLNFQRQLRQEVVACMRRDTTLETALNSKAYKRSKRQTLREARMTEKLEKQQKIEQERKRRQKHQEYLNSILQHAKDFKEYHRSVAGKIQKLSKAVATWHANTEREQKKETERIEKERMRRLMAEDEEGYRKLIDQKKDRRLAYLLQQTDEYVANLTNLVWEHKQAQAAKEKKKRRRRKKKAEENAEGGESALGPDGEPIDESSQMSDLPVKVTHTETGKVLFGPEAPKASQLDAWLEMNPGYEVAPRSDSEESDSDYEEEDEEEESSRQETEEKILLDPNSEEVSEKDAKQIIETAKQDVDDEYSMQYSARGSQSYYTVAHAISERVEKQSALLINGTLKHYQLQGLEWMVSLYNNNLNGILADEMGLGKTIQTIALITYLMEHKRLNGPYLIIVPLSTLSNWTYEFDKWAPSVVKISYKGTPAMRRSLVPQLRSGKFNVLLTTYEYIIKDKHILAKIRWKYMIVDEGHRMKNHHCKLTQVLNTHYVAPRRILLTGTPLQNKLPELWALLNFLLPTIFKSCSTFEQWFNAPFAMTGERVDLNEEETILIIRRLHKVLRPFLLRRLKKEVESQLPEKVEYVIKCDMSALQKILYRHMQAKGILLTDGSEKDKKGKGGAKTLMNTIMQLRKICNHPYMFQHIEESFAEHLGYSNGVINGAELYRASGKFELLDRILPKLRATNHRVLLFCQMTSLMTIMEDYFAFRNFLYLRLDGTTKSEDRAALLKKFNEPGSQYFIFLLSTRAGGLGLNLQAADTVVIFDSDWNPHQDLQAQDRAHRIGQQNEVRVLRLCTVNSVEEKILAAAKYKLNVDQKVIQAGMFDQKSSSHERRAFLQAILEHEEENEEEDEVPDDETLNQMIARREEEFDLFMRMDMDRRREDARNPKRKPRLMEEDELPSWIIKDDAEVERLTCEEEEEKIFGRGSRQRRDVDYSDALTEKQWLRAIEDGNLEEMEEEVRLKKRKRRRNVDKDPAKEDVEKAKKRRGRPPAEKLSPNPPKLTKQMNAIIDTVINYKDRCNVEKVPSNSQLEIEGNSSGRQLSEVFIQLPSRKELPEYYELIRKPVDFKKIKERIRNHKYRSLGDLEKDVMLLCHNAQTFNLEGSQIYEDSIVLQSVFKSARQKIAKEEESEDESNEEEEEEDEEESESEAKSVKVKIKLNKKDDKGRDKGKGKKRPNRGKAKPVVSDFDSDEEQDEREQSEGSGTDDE

The term DC50 denotes the midpoint of the concentration-degradation curve. Low values mean degradation at low concentration, high ones degradation only at high concentration. In general, Dmax refers to the largest share of the target that was removed. For the molecule `Cc1ncsc1-c1ccc([C@H](C)NC(=O)[C@@H]2C[C@@H](O)CN2C(=O)[C@@H](c2cc(N3CCC(CN4CCC(O[C@H]5C[C@H](N6CCC([C@@H](C)c7cnn(-c8cc(-c9ccccc9O)nnc8N)c7)CC6)C5)CC4)CC3)no2)C(C)C)cc1` [Compound 74, (2S,4R)-4-hydroxy-N-[(1S)-1-[4-(4-methyl-1,3-thiazol-5-yl)phenyl]ethyl]-1-[(2R)-3-methyl-2-{3-[4-({4-[(1r,3r)-3-{4-[(1R)-1-{1-[3-amino-6-(2-hydroxyphenyl)pyridazin-4-yl]-1H-pyrazol-4-yl}ethyl]piperidin-- yl}cyclobutoxy]piperidin-1-yl}methyl)piperidin-1-yl]-1,2-oxazol-5-yl}butanoyl]pyrrolidine-2-carboxamide], the DC50 is less than 2.5 nM and the Dmax is more than 75%.
With `Cc1ncsc1-c1ccc([C@H](C)NC(=O)[C@@H]2C[C@@H](O)CN2C(=O)[C@@H](c2cc(N3CCC(CN4CCC(O[C@H]5C[C@H](N6CCC([C@H](C)c7cnn(-c8cc(-c9ccccc9O)nnc8N)c7)CC6)C5)CC4)CC3)no2)C(C)C)cc1` [Compound 75, (2S,4R)-4-hydroxy-N-[(1S)-1-[4-(4-methyl-1,3-thiazol-5-yl)phenyl]ethyl]-1-[(2R)-3-methyl-2-{3-[4-({4-[(1r,3r)-3-{4-[(1S)-1-{1-[3-amino-6-(2-hydroxyphenyl)pyridazin-4-yl]-1H-pyrazol-4-yl}ethyl]piperidin-1-yl}cyclobutoxy]piperidin-1-yl}methyl)piperidin-1-yl]-1,2-oxazol-5-yl}butanoyl]pyrrolidine-2-carboxamide], the DC50 is less than 2.5 nM and the Dmax is more than 75%.
In the case of `Cc1ncsc1-c1ccc([C@H](C)NC(=O)[C@@H]2C[C@@H](O)CN2C(=O)[C@@H](c2cc(N3CCC(CN4CCC(O[C@H]5C[C@H](C(=O)N6CCC(N7C8CCC7CN(c7cc(-c9ccccc9O)nnc7N)C8)CC6)C5)CC4)CC3)no2)C(C)C)cc1` [Compound 76, (2S,4R)-4-hydroxy-N-[(1S)-1-[4-(4-methyl-1,3-thiazol-5-yl)phenyl]ethyl]-1-[(2R)-3-methyl-2-{3-[4-({4-[(1r,3r)-3-(4-{3-[3-amino-6-(2-hydroxyphenyl)pyridazin-4-yl]-3,8-diazabicyclo[3.2.1]octan-8-yl}piperidine-1-carbonyl)cyclobutoxy]piperidin-1-yl}methyl)piperidin-1-yl]-1,2-oxazol-5-yl}butanoyl]pyrrolidine-2-carboxamide], the DC50 lay in the range of 2.5 to 10 nM and the Dmax is more than 75%.
As to `Cc1ncsc1-c1ccc([C@H](C)NC(=O)[C@@H]2C[C@@H](O)CN2C(=O)[C@@H](c2cc(N3CCC(CN4CCC(O[C@H]5C[C@H](N6CCC(O[C@H]7CCN(c8cc(-c9ccccc9O)nnc8N)C7)CC6)C5)CC4)CC3)no2)C(C)C)cc1` [Compound 77, (2S,4R)-4-hydroxy-N-[(1S)-1-[4-(4-methyl-1,3-thiazol-5-yl)phenyl]ethyl]-1-[(2R)-3-methyl-2-{3-[4-({4-[(1r,3r)-3-(4-{[(3S)-1-[3-amino-6-(2-hydroxyphenyl)pyridazin-4-yl]pyrrolidin-3-yl]oxy}piperidin-1-yl)cyclobutoxy]piperidin-1-yl}methyl)piperidin-1-yl]-1,2-oxazol-5-yl}butanoyl]pyrrolidine-2-carboxamide], the DC50 is less than 2.5 nM and the Dmax was more than 75%.
The corresponding values for `CC(C)[C@@H](C(=O)N1C[C@H](O)C[C@H]1C(=O)N[C@@H](C)c1ccc(C#N)cc1)c1cc(N2CCC(CN3CCC(O[C@H]4C[C@H](N5CCC(C(C)n6cc(C#Cc7cc(-c8ccccc8O)nnc7N)cn6)CC5)C4)CC3)CC2)no1` (stereo partly drawn) [Compound 78, (2S,4R)-N-[(1S)-1-(4-cyanophenyl)ethyl]-4-hydroxy-1-[(2R)-3-methyl-2-{3-[4-({4-[(1r,3r)-3-{4-[1-(4-{2-[3-amino-6-(2-hydroxyphenyl)pyridazin-4-yl]ethynyl}-1H-pyrazol-1-yl)ethyl]piperidin-1-yl}cyclobutoxy]piperidin-1-yl}methyl)piperidin-1-yl]-1,2-oxazol-5-yl}butanoyl]pyrrolidine-2-carboxamide] are 2.5 to 10 nM and more than 75%.
Regarding `Cc1ncsc1-c1ccc([C@H](C)NC(=O)[C@@H]2C[C@@H](O)CN2C(=O)[C@H](c2cc(N3CCC(O[C@H]4CC[C@@H](Oc5cc(N6C7CCC6CN(c6cc(-c8ccccc8O)nnc6N)C7)ccn5)CC4)CC3)no2)C(C)C)cc1` [Compound 79, (2S,4R)-4-hydroxy-N-[(1S)-1-[4-(4-methyl-1,3-thiazol-5-yl)phenyl]ethyl]-1-[(2S)-3-methyl-2-[3-(4-{[(1s,4s)-4-[(4-{3-[3-amino-6-(2-hydroxyphenyl)pyridazin-4-yl]-3,8-diazabicyclo[3.2.1]octan-8-yl}pyridin-2-yl)oxy]cyclohexyl]oxy}piperidin-1-yl)-1,2-oxazol-5-yl]butanoyl]pyrrolidine-2-carboxamide], the DC50 is not below 30 nM.
Take `Cc1ncsc1-c1ccc([C@H](C)NC(=O)[C@@H]2C[C@@H](O)CN2C(=O)[C@@H](c2cc(N3CCC(O[C@H]4CC[C@@H](Oc5cc(N6C7CCC6CN(c6cc(-c8ccccc8O)nnc6N)C7)ccn5)CC4)CC3)no2)C(C)C)cc1` [Compound 80, (2S,4R)-4-hydroxy-N-[(1S)-1-[4-(4-methyl-1,3-thiazol-5-yl)phenyl]ethyl]-1-[(2R)-3-methyl-2-[3-(4-{[(1s,4s)-4-[(4-{3-[3-amino-6-(2-hydroxyphenyl)pyridazin-4-yl]-3,8-diazabicyclo[3.2.1]octan-8-yl}pyridin-2-yl)oxy]cyclohexyl]oxy}piperidin-1-yl)-1,2-oxazol-5-yl]butanoyl]pyrrolidine-2-carboxamide]: the DC50 is less than 2.5 nM and the greatest degradation seen (Dmax) is more than 75%.
For the molecule `Cc1ncsc1-c1ccc([C@H](C)NC(=O)[C@@H]2C[C@@H](O)CN2C(=O)[C@@H](c2cc(OCCN3CCC(O[C@H]4C[C@H](OC(=O)N5CCN(c6cc(-c7ccccc7O)nnc6N)CC5)C4)CC3)no2)C(C)C)cc1` [Compound 81, (1r,3r)-3-({1-[2-({5-[(2R)-1-[(2S,4R)-4-hydroxy-2-{[(1S)-1-[4-(4-methyl-1,3-thiazol-5-yl)phenyl]ethyl]carbamoyl}pyrrolidin-1-yl]-3-methyl-1-oxobutan-2-yl]-1,2-oxazol-3-yl}oxy)ethyl]piperidin-4-yl}oxy)cyclobutyl 4-[3-amino-6-(2-hydroxyphenyl)pyridazin-4-yl]piperazine-1-carboxylate], the DC50 was less than 2.5 nM and the Dmax was more than 75%.
Regarding `CC(C)[C@H](C(=O)N1C[C@H](O)C[C@H]1C(=O)N[C@@H](C)c1ccc(-c2scnc2C#CCOCCOCCOCCOCCOc2cc(N3C4CCC3CN(c3cc(-c5ccccc5O)nnc3N)C4)ccn2)cc1)N1Cc2ccccc2C1=O` [Compound 82, (2S,4R)-N-[(1S)-1-[4-(4-{1-[(4-{3-[3-amino-6-(2-hydroxyphenyl)pyridazin-4-yl]-3,8-diazabicyclo[3.2.1]octan-8-yl}pyridin-2-yl)oxy]-3,6,9,12-tetraoxapentadec-14-yn-15-yl}-1,3-thiazol-5-yl)phenyl]ethyl]-4-hydroxy-1-[(2R)-3-methyl-2-(1-oxo-2,3-dihydro-1H-isoindol-2-yl)butanoyl]pyrrolidine-2-carboxamide], the DC50 was not below 30 nM.
